# Experiment: Antiinflammatory activity in rat Polymorphonuclear leukocytes assessed as inhibition of platelet-activating factor-induced beta-glucuronidase release at 10 uM
# Assay type: functional
row,Compound,inhibition at 10 µM [%]
1,C=CC[C@H]1C[C@]2(O)C[C@H](C(C)(C)O)OC2=C(CC2=C3O[C@@H](C(C)(C)O)C[C@@]3(O)C[C@H](CC=C)C2=O)C1=O [ILLICIDIONE C],25.3
2,C[C@@H]1C(=O)O[C@H]2[C@H](O)[C@@]34[C@H]5C[C@@H](C(C)(C)C)[C@]36[C@@H](OC(=O)[C@@H]6O)O[C@@]4(C(=O)O5)[C@@]12O [GINKOLIDE B],83.5
3,C=CCC1=C[C@]2(O)C[C@H](C(C)(C)O)OC2=C(CC2=C3O[C@@H](C(C)(C)O)C[C@@]3(O)C=C(CC=C)C2=O)C1=O [ILLICIDIONE B],18.6
4,C=CC[C@]1(O)C(=O)C=C2O[C@H](C(C)(C)O)C[C@@]23[C@@H]2C(=O)[C@@](O)(CC=C)[C@@H](C4=C2OC(C)(C)[C@H](O)C4)[C@H]31 [ILLICIDIONE A],38.2

# Reference: ChEMBL document CHEMBL1782033, “Dimeric prenylated C6-C3 compounds from the stem bark of Illicium oligandrum” (2011)
